Experimental data taken from article PMC9743094, “Synthesis and Evaluation of Polymyxins Bearing Reductively Labile Disulfide-Linked Lipids” (Journal of Medicinal Chemistry, 2022).
Converted amounts (≈) assume the structure as drawn. Where two headings read alike, the source gives them in different places. Starred links: 1 amine or outer side, 2 acyl side, 3 side chain; linkers in the order of their positions; H or OH if unused. Positions of bridges follow the written chain, without caps; N, C: chain ends. Non-standard residues stand in square brackets, D forms with d. Residues, ends and D or L forms follow the SMILES beside them. *: point of attachment. X2 = CC(C)CCCCC[C@@H](N[*:1])C(=O)[*:2]; S(3-Methylbutyl) = CC(C)CCS*; Dab = NCC[C@H](N)C(=O)O; X1 = CC(C)CCCCS*

Key:
P. aeruginosa (PAO1) = format: cell-based; settings: PAO1, 2 h
Experimental: (§1) Minimum inhibitory concentrations (MICs) on relevant Gram-negative bacteria were determined by broth microdilution, in accordance with CLSI guidelines. Indicated bacteria were taken from glycerol stocks and incubated overnight on blood agar at 37 °C. Well-isolated colonies were taken, suspended in TSB (5 mL), and grown to an OD600 of 0.5. Compounds to be tested were dissolved in DMSO (6.4 mg/mL), diluted in cation-adjusted Mueller–Hinton Broth (CAMHB) (12.5 and 20 μg/mL Mg^2+ and Ca^2+, respectively), and diluted serially on polypropylene microtiter plates. To the diluted compounds (50 μL per well) was added 50 μL of relevant bacterial suspension, to yield a final concentration of 10^6 CFU/mL. Plates were covered by adhesive gas-permeable membranes and incubated at 37 °C. MIC was read out as the lowest concentration that inhibited visual bacterial growth. Shown values are consistent results from at least duplicate experiments.
(§2) Table S3. MIC values [µg/mL] and relative toxicity values for disulfide containing polymyxin derivative 18b and
(§3) non-disulfide containing analogue 45. […]

A. baumanii (ATCC 17961) = format: cell-based; settings: ATCC 17961, 2 h
Experimental: as §1, §2, §3

[1] = test system: differentiated conditionally immortalized PTECs (ciPTECs, OAT-1); test: ciPTEC toxicity assay (PrestoBlue); format: cell-based, human
Experimental: ciPTECs (OAT-1) cells,[52],[53] grown to 90–100% confluence, were washed by Hanks’ balanced salt solution (HBSS; Gibco, Life Technologies, Paisley, U.K.) and detached by accutase (4 mL) for 5 min at 37 °C. The cells were then suspended in fresh medium (DMEM/F-12, supplemented with 10% fetal calf serum, insulin (5 μg/mL), transferrin (5 μg/mL), selenium (5 μg/mL) hydrocortisone (35 ng/mL), Epidermal Growth Factor (10 ng/mL) and tri-iodothyronine (40 pg/mL)). Cell density was adjusted to 2.0 × 10^5 cells/mL, of which 100 μL was added to each well of a 96-well plate. The cells were incubated for 24 h at 33 °C, followed by 6 days at 37 °C, in a humidified atmosphere containing 5% (v/v) CO2. The medium was refreshed every second or third day.
Compounds were dissolved and serially diluted in serum-free medium. Differentiated cells were washed once with HBSS and serially diluted compounds (80 μL/well) were transferred to the ciPTEC-containing plate. Compounds were incubated for 24 h at 37 °C; the cells were washed by HBSS, followed by incubation with 10% PrestoBlue cell viability reagent (Thermo Scientific, Vienna, Austria) in HBSS at 37 °C in the dark. Fluorescence was recorded (excitation: 530 nm, emission: 590 nm). Raw data are corrected for PrestoBlue background fluorescence and reported relative to the no-treatment control (cells with medium only). Viability data were fitted with GraphPad Prism software (version 5.03; GraphPad Software, La Jolla, CA), by nonlinear regression with 0 as bottom constraint. Presented data are based on triplicates.
Toxicity assessment on PTECs
Table S1. TC50 values for polymyxin analogues. Toxicity assessment on proximal tubular epithelial cells
performed using PrestoBlue™ assay. TC50 values are derived after non-linear regression analysis on cell viability
correspond to data obtained from 2 different batches of cells/analyses on different days. As the value for
polymyxin B differs 2-fold, values in the manuscript are presented relative to the polymyxin B value.
Compound TC50 (µ M) Compound TC50 (µ M)
Polymyxin B 80 Polymyxin B 41
Figure S3. Representative traces of ciPTECs’ viability after incubation with analogues for 24 hours. Shown data are based on […]

P. aeruginosa M120 = format: cell-based; settings: M120
Experimental: as §1
(§4) Bacterial strains used for MIC assays and extended MIC assessment
(§5) Strains: The following strains were obtained from BEI Resources, NIAID, NIH: E. Coli M0072, strain
(§6) Table S2. […] Values are given in μg/mL.
(§7) Species Strain ID Resistance Polymyxin B 18b 23a 24a

E. coli 1793 = format: cell-based; settings: 1793
Experimental: as §1, §4, §5, §6, §7

P. aeruginosa 2018-007 = format: cell-based; settings: 2018-007
Experimental: as §1, §4, §5, §6, §7

P. aeruginosa ATCC 10145 = format: cell-based; settings: ATCC 10145
Experimental: as §1, §4, §5, §6, §7

A. baumannii RUH-134 = format: cell-based; settings: RUH-134
Experimental: as §1, §4, §5, §6, §7

P. aeruginosa 2251 = format: cell-based; settings: 2251
Experimental: as §1, §4, §5, §6, §7

K. pneumoniae RC0045 = format: cell-based; settings: RC0045
Experimental: as §1, §4, §5, §6, §7

K. pneumoniae ATCC 29665 = format: cell-based; settings: ATCC 29665
Experimental: as §1, §4, §5, §6, §7

E. coli M0072 = format: cell-based; settings: M0072
Experimental: as §1, §4, §5, §6, §7

E. coli JS136 = format: cell-based; settings: JS136
Experimental: as §1, §4, §5, §6, §7

K. pneumoniae KP1.53 = format: cell-based; settings: KP1.53
Experimental: as §1, §4, §5, §6, §7

A. baumannii BAA-747 = format: cell-based; settings: BAA-747
Experimental: as §1, §4, §5, §6, §7

[2] = test system: P. aeruginosa (ATCC 27853); format: cell-based; settings: ATCC 27853
Experimental: as §1

[3] = test system: K. pneumoniae (ATCC 13883); format: cell-based; settings: ATCC 13883
Experimental: as §1

[4] = test system: A. baumannii (ATCC 19606); format: cell-based; settings: ATCC 19606
Experimental: as §1

E. coli (ATCC 25922) = format: cell-based; settings: ATCC 25922
Experimental: as §1

A. baumannii NRZ-00687 = format: cell-based; settings: NRZ-00687
Experimental: as §1, §4, §5, §6, §7

| SMILES | MIC P. aeruginosa (PAO1) (P. aeruginosa (PAO1)) [µg/mL] | MIC A. baumanii (ATCC 17961) (A. baumanii (ATCC 17961)) [µg/mL] | ciPTEC Toxicity Index (relative to polymyxin B) [1] | TC50, Day 2 ([1]; 24 h) [µM] | MIC P. aeruginosa M120 (P. aeruginosa M120) [µg/mL] | MIC E. coli 1793 (E. coli 1793) [µg/mL] | MIC P. aeruginosa 2018-007 (P. aeruginosa 2018-007) [µg/mL] | MIC P. aeruginosa ATCC 10145 (P. aeruginosa ATCC 10145) [µg/mL] | MIC A. baumannii RUH-134 (A. baumannii RUH-134) [µg/mL] | MIC P. aeruginosa 2251 (P. aeruginosa 2251) [µg/mL] | MIC K. pneumoniae RC0045 (K. pneumoniae RC0045) [µg/mL] | MIC K. pneumoniae ATCC 29665 (K. pneumoniae ATCC 29665) [µg/mL] | MIC E. coli M0072 (E. coli M0072) [µg/mL] | MIC E. coli JS136 (E. coli JS136) [µg/mL] | MIC K. pneumoniae KP1.53 (K. pneumoniae KP1.53) [µg/mL] | MIC A. baumannii BAA-747 (A. baumannii BAA-747) [µg/mL] | MIC P. aeruginosa (ATCC 27853) [2] [µg/mL] | MIC K. pneumoniae (ATCC 13883) [3] [µg/mL] | MIC A. baumannii (ATCC 19606) [4] [µg/mL] | MIC A. baumannii NRZ-00687 (A. baumannii NRZ-00687) [µg/mL] | also measured |
| --- | --- | --- | --- | --- | --- | --- | --- | --- | --- | --- | --- | --- | --- | --- | --- | --- | --- | --- | --- | --- | --- |
| CC(C)CCSSC[C@@H](N)C(=O)N[C@H](C(=O)N[C@@H](CCN)C(=O)N[C@H]1CCNC(=O)[C@H]([C@@H](C)O)NC(=O)[C@H](CCN)NC(=O)[C@H](CCN)NC(=O)[C@H](CC(C)C)NC(=O)[C@@H](Cc2ccccc2)NC(=O)[C@H](CCN)NC1=O)[C@@H](C)O [Compound 18b] (H-[dC](S(3-Methylbutyl))T[Dab][Dab][Dab][dF]L[Dab][Dab]T; lactam 4-C) | 1 (≈ 0.856 µM) | 0.25 (≈ 0.214 µM) | 4.7 | 192 | 2 (≈ 1.71 µM) | 0.25 (≈ 0.214 µM) | 2 (≈ 1.71 µM) | 2 (≈ 1.71 µM) | 1 (≈ 0.856 µM) | 2 (≈ 1.71 µM) | 0.5 (≈ 0.428 µM) | 0.5 (≈ 0.428 µM) | 0.5 (≈ 0.428 µM) | 0.5 (≈ 0.428 µM) | 1 (≈ 0.856 µM) | 0.5 (≈ 0.428 µM) | – | – | – | – | TC50, Day 1 [1]: 345 µM |
| CC(C)CCCCSSC[C@H](NC(=O)CN)C(=O)N[C@H](C(=O)N[C@@H](CCN)C(=O)N[C@H]1CCNC(=O)[C@H]([C@@H](C)O)NC(=O)[C@H](CCN)NC(=O)[C@H](CCN)NC(=O)[C@H](CC(C)C)NC(=O)[C@@H](Cc2ccccc2)NC(=O)[C@H](CCN)NC1=O)[C@@H](C)O [Compound 24a] (H-GC(X1)T[Dab][Dab][Dab][dF]L[Dab][Dab]T; lactam 5-C) | – | – | 8.0 | – | 2 (≈ 1.6 µM) | 1 (≈ 0.798 µM) | 16 (≈ 12.8 µM) | 4 (≈ 3.19 µM) | 1 (≈ 0.798 µM) | 2 (≈ 1.6 µM) | 1 (≈ 0.798 µM) | 1 (≈ 0.798 µM) | 1 (≈ 0.798 µM) | 1 (≈ 0.798 µM) | 2 (≈ 1.6 µM) | 1 (≈ 0.798 µM) | 2 (≈ 1.6 µM) | 1 (≈ 0.798 µM) | 1 (≈ 0.798 µM) | 1 (≈ 0.798 µM) | MIC E. coli (ATCC 25922) (E. coli (ATCC 25922)): 2 µg/mL (≈ 1.6 µM); TC50, Day 2 [1]: 327 µM |
| CC(C)CCCCC[C@@H](N)C(=O)N[C@H](C(=O)N[C@@H](CCN)C(=O)N[C@H]1CCNC(=O)[C@H]([C@@H](C)O)NC(=O)[C@H](CCN)NC(=O)[C@H](CCN)NC(=O)[C@H](CC(C)C)NC(=O)[C@@H](Cc2ccccc2)NC(=O)[C@H](CCN)NC1=O)[C@@H](C)O [Compound 45] (H-[X2]T[Dab][Dab][Dab][dF]L[Dab][Dab]T; lactam 4-C) | 1 (≈ 0.883 µM) | 0.25 (≈ 0.221 µM) | 2.0 | 82 | – | – | – | – | – | – | – | – | – | – | – | – | 1 (≈ 0.883 µM) | ≤ 0.25 | 0.25 (≈ 0.221 µM) | 0.5 (≈ 0.442 µM) | – |
